Source: ChEMBL document CHEMBL1138728, “QSAR modelling of HIV-1 reverse transcriptase inhibition by benzoxazinones using a combination of P_VSA and pharmacophore feature descriptors” (Bioorg Med Chem Lett, 2004)

Biological target: Human immunodeficiency virus type 1 reverse transcriptase (Human immunodeficiency virus 1, UniProt Q72547)
Experiment: Inhibitory activity against HIV-1 reverse transcriptase

IC50: < 2 µM
SMILES: CC(=O)Nc1ccc2c(c1)C(C#CC(C)C)(C(F)(F)F)OC(=O)N2 (stereo unspecified)
